The text below walks through data of patent US5814640A, “Method of treating gastrointestinal malignancies” (Montefiore Medical Center, priority 1997, dated 1998).

One assay relates to SW480. As to the kind of experiment: Cytokinetic studies (cell cycle distribution by flow cytometry), SW480. It is filed as cell-based, human. On the procedure:
Cells were cultured in RPMI 1640 with 10% fetal calf serum.
The DNA content of propidium-iodide stained nuclei was measured by flow cytometry. Cells in early exponential growth were incubated with or without drug, trypsinized and washed twice in PBS. A total of 10^6 viable cells, as determined by trypan blue exclusion, were permeabilized in sucrose-citrate-DMSO buffer as described by Vindelov et al., enucleated with trypsin and incubated with RNAse. Stripped nuclei were stained with propidium iodide at a final concentration of 2.5 ug/ml. Correlated dual parameter measurements of DNA content (from propidium-iodide red fluorescence excited at 488 nm) versus forward angle light scatter were performed using an EPICS C flow cytometer equipped with a 5W ultraviolet enhanced argon ion laser. Histograms consisting of a minimum of 10,000 nuclei were analyzed off-line with an EPICS C to RSX-11M conversion program (EPICOPY) and subsequently analyzed with ROMP and ROC3D programs rewritten for a DEC 11/73 computer. Cell cycle analysis for the compartmental boundaries and number of cells in the G1, S, and G2M phases was performed on ROMP-readable files using either a multiple gaussian fitting routine developed by Dean et al. or, for the perturbed histograms, a parametric method based on multiple broadened rectangles.
For orientation: In flow cytometry, cells or beads pass a laser one at a time.

The test system of another assay is colorectal cancer. As to conditions: cited from earlier work.
Another assay concerns HT-29. The assay can be described thus: Cytokinetic studies (cell cycle distribution by flow cytometry), HT-29. It is filed as cell-based, human.
Setting [1] is: 5-fluorouracil 50-500 uM, 24 hour incubation.
Where [2] appears, read: alone or in combination, data not shown.

The structures appear in SMILES notation. Some results are limits rather than exact numbers.

Experimental for HT-29: Cells were cultured in RPMI 1640 with 10% fetal calf serum. Doubling times for these cell lines are 18 and 25 hours.
The DNA content of propidium-iodide stained nuclei was measured by flow cytometry. Cells in early exponential growth were incubated with or without drug, trypsinized and washed twice in PBS. A total of 10^6 viable cells, as determined by trypan blue exclusion, were permeabilized in sucrose-citrate-DMSO buffer as described by Vindelov et al., enucleated with trypsin and incubated with RNAse. Stripped nuclei were stained with propidium iodide at a final concentration of 2.5 ug/ml. Correlated dual parameter measurements of DNA content (from propidium-iodide red fluorescence excited at 488 nm) versus forward angle light scatter were performed using an EPICS C flow cytometer equipped with a 5W ultraviolet enhanced argon ion laser. Histograms consisting of a minimum of 10,000 nuclei were analyzed off-line with an EPICS C to RSX-11M conversion program (EPICOPY) and subsequently analyzed with ROMP and ROC3D programs rewritten for a DEC 11/73 computer. Cell cycle analysis for the compartmental boundaries and number of cells in the G1, S, and G2M phases was performed on ROMP-readable files using either a multiple gaussian fitting routine developed by Dean et al. or, for the perturbed histograms, a parametric method based on multiple broadened rectangles. […]

`O=c1[nH]cc(F)c(=O)[nH]1` [5-fluorouracil]: the “G2M compartment, dose response” value in the assay with SW480 (setting [1]) is recorded as “nearly complete depletion of G2M”. Also, in the assay with SW480 (24 hours, alone or in combination, data not shown), the “accumulation of cells in S and G2M” value is “concomitant decrease in the accumulation of cells in S and G2M at 24 hours”. In the assay on SW480 (setting [2]), the “block in G0/G1” value was “prolongation of the block in G0/G1 to 24 hours” and the “effects on cell cycle distribution compared with HT-29” value is listed as “qualitatively identical effects”. Further, in the assay with colorectal cancer (compared with untreated controls), the “median survival of treated patients” value was “no better than that of untreated controls”. Besides, the remissions in patients in the assay with colorectal cancer (disseminated colorectal cancer) is on record as 15-35 % of patients. In addition, the “G2M compartment, dose response” value with HT-29 (setting [1]) is given as “nearly complete depletion of G2M”. The “time of G2M depletion from start of incubation” value in the assay on HT-29 (time course, 5-fluorouracil 50 uM, alpha-2a-interferon 500 U/ml) was at most 7 h.
